Assay results reported in patent US20150105252A1, “SUBSTITUTED PYRAZOLES AS HERBICIDES” (E I DU PONT DE NEMOURS AND COMPANY, priority 2013, published 2015).

How the values were obtained:
[1] = test system: velvetleaf; experiment: Test A postemergence; format: in vivo, Abutilon theophrasti; conditions: Postemergence
Procedure, shortened: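 Growth medium: loam soil blended with sand. Preemergence treatment used a directed soil spray right after planting; postemergence treatment targeted seedlings at one to two leaves (2–10 cm height). Response was judged by eye relative to untreated plants about 10 days later on a 0–100 control scale.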

[2] = test system: blackgrass; experiment: Test C preemergence; format: in vivo, Alopecurus myosuroides; conditions: preemergence; for Plant response rating, Blackgrass: 125 g ai/ha, scale 0 to 100, 0 = no effect, 100 = complete control
Procedure, shortened: (§1)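 Scores of 0 (no effect) to 100 (complete control) were assigned by eye after 13–15 days, comparing treated pots with controls. Soil-applied (preemergence) treatments went onto seeds in loam and sand; foliar (postemergence) treatments onto 1- to 4-leaf plants in peat medium.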

[3] = test system: wheat; experiment: Test C preemergence; format: in vivo, Triticum aestivum; conditions: preemergence; for Plant response rating, Wheat: 125 g ai/ha, scale 0 to 100, 0 = no effect, 100 = complete control
Procedure, shortened: as §1

[4] = test system: galium; experiment: Test C preemergence; format: in vivo, Galium aparine; conditions: preemergence; for Plant response rating, Galium: 125 g ai/ha, scale 0 to 100, 0 = no effect, 100 = complete control
Procedure, shortened: as §1

[5] = test system: corn; experiment: Test C preemergence; format: in vivo, Zea mays; conditions: preemergence; for Plant response rating, Corn: 125 g ai/ha, scale 0 to 100, 0 = no effect, 100 = complete control
Procedure, shortened: as §1

[6] = test system: pigweed; experiment: Test C preemergence; format: in vivo, Amaranthus retroflexus; conditions: preemergence; for Plant response rating, Pigweed: 125 g ai/ha, scale 0 to 100, 0 = no effect, 100 = complete control
Procedure, shortened: as §1

[7] = test system: ragweed; experiment: Test C preemergence; format: in vivo, Ambrosia elation; conditions: preemergence; for Plant response rating, Ragweed: 125 g ai/ha, scale 0 to 100, 0 = no effect, 100 = complete control
Procedure, shortened: as §1

[8] = test system: soybean; experiment: Test C preemergence; format: in vivo, Glycine max; conditions: preemergence; for Plant response rating, Soybean: 125 g ai/ha, scale 0 to 100, 0 = no effect, 100 = complete control
Procedure, shortened: as §1

[9] = test system: oilseed rape; experiment: Test C preemergence; format: in vivo, Brassica napus; conditions: preemergence; for Plant response rating, Oilseed Rape: 125 g ai/ha, scale 0 to 100, 0 = no effect, 100 = complete control
Procedure, shortened: as §1

[10] = test system: waterhemp; experiment: Test C preemergence; format: in vivo, Amaranthus rudis; conditions: preemergence; for Plant response rating, Waterhemp: 125 g ai/ha, scale 0 to 100, 0 = no effect, 100 = complete control
Procedure, shortened: as §1

[11] = test system: wheat; experiment: Test C postemergence; format: in vivo, Triticum aestivum; conditions: postemergence; for Plant response rating, Wheat: 250 g ai/ha, scale 0 to 100 (0 no effect, 100 complete control); for Wheat plant response rating: scale 0 to 100
Procedure, shortened: as §1

[12] = test system: foxtail, giant; experiment: Test C postemergence; format: in vivo, Setaria faberii; conditions: for Plant response rating (scale of 0 to 100 where 0 is no effect and 100 is complete control), Foxtail, Giant: Postemergence, 31 g ai/ha, visually evaluated after 13 to 15 days; for Foxtail, Giant plant response rating / Plant response rating, Foxtail, Giant: postemergence; for Foxtail, Giant plant response rating: 62 g ai/ha, scale 0 to 100
Procedure, shortened: as §1

[13] = test system: johnsongrass; experiment: Test C postemergence; format: in vivo, Sorghum halepense; conditions: for Plant response rating (scale of 0 to 100 where 0 is no effect and 100 is complete control), Johnsongrass: Postemergence, 31 g ai/ha, visually evaluated after 13 to 15 days; for Johnsongrass plant response rating / Plant response rating, Johnsongrass: postemergence; for Johnsongrass plant response rating: 62 g ai/ha, scale 0 to 100
Procedure, shortened: as §1

[14] = test system: lambsquarters; experiment: Test C postemergence; format: in vivo, Chenopodium album; conditions: for Plant response rating (scale of 0 to 100 where 0 is no effect and 100 is complete control), Lambsquarters: Postemergence, 31 g ai/ha, visually evaluated after 13 to 15 days; for Lambsquarters plant response rating / Plant response rating, Lambsquarters: postemergence; for Lambsquarters plant response rating: 62 g ai/ha, scale 0 to 100
Procedure, shortened: as §1

[15] = test system: chickweed; experiment: Test C postemergence; format: in vivo, Stellaria media; conditions: for Plant response rating (scale of 0 to 100 where 0 is no effect and 100 is complete control), Chickweed: Postemergence, 31 g ai/ha, visually evaluated after 13 to 15 days; for Chickweed plant response rating / Plant response rating, Chickweed: postemergence; for Chickweed plant response rating: 62 g ai/ha, scale 0 to 100
Procedure, shortened: as §1

[16] = 125 g ai/ha, 0 to 100 scale, 0 no effect, 100 complete control
[17] = 500 g ai/ha, 0 to 100 scale (0 no effect, 100 complete control)
[18] = 31 g ai/ha, visual rating, scale 0 to 100 (0 no effect, 100 complete control), 13 to 15 days
[19] = 62 g ai/ha, scale 0 to 100 (0 no effect, 100 complete control), 13 to 15 days
[20] = 250 g ai/ha, scale 0 to 100, 0 is no effect, 100 is complete control
[21] = 250 g ai/ha, scale 0 to 100 (0 no effect, 100 complete control)
[22] = 125 g ai/ha, scale 0 to 100, 0 no effect, 100 complete control

In the case of `CCCc1cc(C(=O)NC(C)C)nn1Cc1ccnc(C(F)(F)F)c1` [Compound 186], the “Velvetleaf plant response rating” value [1, 16] was 20, the “Velvetleaf plant response rating” value [1, 17] was 100 and the “Blackgrass plant response rating” value [2, 18] was 85. The “Blackgrass plant response rating” value [2, 19] was 90, the “Plant response rating, Blackgrass” value ([2]; 13 to 15 days) was 90 and the “Blackgrass plant response rating” value [2, 20] was 90. The “Wheat plant response rating” value [3, 18] was 80, the “Wheat plant response rating” value [3, 19] was 90 and the “Plant response rating, Wheat” value ([3]; 13 to 15 days) was 90. The “Wheat plant response rating” value [3, 20] was 90, the “Galium plant response rating” value [4, 18] was 50 and the “Galium plant response rating” value [4, 19] was 100. The “Plant response rating, Galium” value ([4]; 13 to 15 days) was 100, the “Galium plant response rating” value [4, 20] was 95 and the “Corn plant response rating” value [5, 18] was 55. The “Corn plant response rating” value [5, 19] was 85, the “Plant response rating, Corn” value ([5]; 13 to 15 days) was 95 and the “Corn plant response rating” value [5, 20] was 98. For the same compound, the “Pigweed plant response rating” value [6, 18] was 100, the “Pigweed plant response rating” value [6, 19] was 100 and the “Plant response rating, Pigweed” value ([6]; 13 to 15 days) was 100. For the same compound, the “Pigweed plant response rating” value [6, 20] was 100, the “Ragweed plant response rating” value [7, 18] was 75 and the “Ragweed plant response rating” value [7, 19] was 100. The “Plant response rating, Ragweed” value ([7]; 13 to 15 days) was 95, the “Ragweed plant response rating” value [7, 20] was 98 and the “Soybean plant response rating” value [8, 18] was 85. For the same compound, the “Soybean plant response rating” value [8, 19] was 65, the “Plant response rating, Soybean” value ([8]; 13 to 15 days) was 98 and the “Soybean plant response rating” value [8, 20] was 98. For the same compound, the “Oilseed Rape plant response rating” value [9, 18] was 100, the “Oilseed Rape plant response rating” value [9, 19] was 100 and the “Plant response rating, Oilseed Rape” value ([9]; 13 to 15 days) was 100. For the same compound, the “Oilseed Rape plant response rating” value [9, 20] was 95, the “Waterhemp plant response rating” value [10, 18] was 100 and the “Waterhemp plant response rating” value [10, 19] was 100. The “Plant response rating, Waterhemp” value ([10]; 13 to 15 days) was 100, the “Waterhemp plant response rating” value [10, 20] was 100 and the “Plant response rating, Wheat” value [11] was 20. For the same compound, the “Wheat plant response rating” value [11] was 15, the “Plant response rating (scale of 0 to 100 where 0 is no effect and 100 is complete control), Foxtail, Giant” value [12] was 5 and the “Foxtail, Giant plant response rating” value [12] was 30. For the same compound, the “Plant response rating, Foxtail, Giant” value [12, 21] was 75, the “Plant response rating, Foxtail, Giant” value [12, 22] was 60 and the “Plant response rating (scale of 0 to 100 where 0 is no effect and 100 is complete control), Johnsongrass” value [13] was 5. The “Johnsongrass plant response rating” value [13] was 5, the “Plant response rating, Johnsongrass” value [13, 21] was 95 and the “Plant response rating, Johnsongrass” value [13, 22] was 5. The “Plant response rating (scale of 0 to 100 where 0 is no effect and 100 is complete control), Lambsquarters” value [14] was 95, the “Lambsquarters plant response rating” value [14] was 65 and the “Plant response rating, Lambsquarters” value [14, 21] was 98. The “Plant response rating, Lambsquarters” value [14, 22] was 75, the “Plant response rating (scale of 0 to 100 where 0 is no effect and 100 is complete control), Chickweed” value [15] was 70 and the “Chickweed plant response rating” value [15] was 80. The “Plant response rating, Chickweed” value [15, 21] was 100 and the “Plant response rating, Chickweed” value [15, 22] was 85.
With `CCCNC(=O)c1cc(OCC)n(Cc2ccnc(C(F)(F)F)c2)n1` [Compound 187] the “Velvetleaf plant response rating” value [1, 16] was 90, the “Velvetleaf plant response rating” value [1, 17] was 100 and the “Blackgrass plant response rating” value [2, 18] was 90. For the same compound, the “Blackgrass plant response rating” value [2, 19] was 90, the “Plant response rating, Blackgrass” value ([2]; 13 to 15 days) was 90 and the “Blackgrass plant response rating” value [2, 20] was 95. For the same compound, the “Wheat plant response rating” value [3, 18] was 20, the “Wheat plant response rating” value [3, 19] was 80 and the “Plant response rating, Wheat” value ([3]; 13 to 15 days) was 90. For the same compound, the “Wheat plant response rating” value [3, 20] was 90, the “Galium plant response rating” value [4, 18] was 90 and the “Galium plant response rating” value [4, 19] was 95. For the same compound, the “Plant response rating, Galium” value ([4]; 13 to 15 days) was 95, the “Galium plant response rating” value [4, 20] was 98 and the “Corn plant response rating” value [5, 18] was 20. For the same compound, the “Corn plant response rating” value [5, 19] was 85, the “Plant response rating, Corn” value ([5]; 13 to 15 days) was 95 and the “Corn plant response rating” value [5, 20] was 98. For the same compound, the “Pigweed plant response rating” value [6, 18] was 70, the “Pigweed plant response rating” value [6, 19] was 100 and the “Plant response rating, Pigweed” value ([6]; 13 to 15 days) was 100. The “Pigweed plant response rating” value [6, 20] was 100, the “Ragweed plant response rating” value [7, 18] was 80 and the “Ragweed plant response rating” value [7, 19] was 100. For the same compound, the “Plant response rating, Ragweed” value ([7]; 13 to 15 days) was 98, the “Ragweed plant response rating” value [7, 20] was 100 and the “Soybean plant response rating” value [8, 18] was 85. The “Soybean plant response rating” value [8, 19] was 95, the “Plant response rating, Soybean” value ([8]; 13 to 15 days) was 98 and the “Soybean plant response rating” value [8, 20] was 98. The “Oilseed Rape plant response rating” value [9, 18] was 50, the “Oilseed Rape plant response rating” value [9, 19] was 90 and the “Plant response rating, Oilseed Rape” value ([9]; 13 to 15 days) was 95. For the same compound, the “Oilseed Rape plant response rating” value [9, 20] was 100, the “Waterhemp plant response rating” value [10, 18] was 100 and the “Waterhemp plant response rating” value [10, 19] was 100. The “Plant response rating, Waterhemp” value ([10]; 13 to 15 days) was 100, the “Waterhemp plant response rating” value [10, 20] was 100 and the “Plant response rating, Wheat” value [11] was 15. For the same compound, the “Wheat plant response rating” value [11] was 10, the “Plant response rating (scale of 0 to 100 where 0 is no effect and 100 is complete control), Foxtail, Giant” value [12] was 5 and the “Foxtail, Giant plant response rating” value [12] was 10. The “Plant response rating, Foxtail, Giant” value [12, 21] was 70, the “Plant response rating, Foxtail, Giant” value [12, 22] was 45 and the “Plant response rating (scale of 0 to 100 where 0 is no effect and 100 is complete control), Johnsongrass” value [13] was 0. The “Johnsongrass plant response rating” value [13] was 5, the “Plant response rating, Johnsongrass” value [13, 21] was 25 and the “Plant response rating, Johnsongrass” value [13, 22] was 5. The “Plant response rating (scale of 0 to 100 where 0 is no effect and 100 is complete control), Lambsquarters” value [14] was 60, the “Lambsquarters plant response rating” value [14] was 75 and the “Plant response rating, Lambsquarters” value [14, 21] was 90. The “Plant response rating, Lambsquarters” value [14, 22] was 75, the “Plant response rating (scale of 0 to 100 where 0 is no effect and 100 is complete control), Chickweed” value [15] was 98 and the “Chickweed plant response rating” value [15] was 70. The “Plant response rating, Chickweed” value [15, 21] was 85 and the “Plant response rating, Chickweed” value [15, 22] was 80.
